The source of these data is a melting point compilation (Tetko et al.; mined from patent text by program, amines drawn as free bases though some values may be those of a salt).

A value given as a limit tells only on which side of the number the result lay.

In general, melting point refers to the temperature of the solid-liquid transition. Turning to `CN1CCN(CCc2ccc(Nc3ncc4c(n3)-c3ccccc3C(c3ccccc3C(F)(F)F)C4)cc2)CC1` (stereo unspecified), the melting point lay within 157 to 158 °C.

For the molecule `CCCCc1cccc(-c2nc(C(C)C)n(C)n2)n1`, the melting point stood at 58.1 °C. With `CONC(=O)Nc1ccc(-c2sc3c(c2CN(C)C(C)c2ccccc2)c(=O)n(-c2ccccc2)c(=O)n3Cc2c(F)cccc2F)cc1` (stereo unspecified), the melting point is 191 to 192 °C.

For the molecule `CC(=O)Nc1ccc([N+](=O)[O-])cc1OCC1CO1` (stereo unspecified), the melting point worked out at 164 °C.

The molecule `C=C(c1ccc(C#N)cc1)c1cncs1` had a melting point of 71 to 73 °C. To `Cc1c(Cl)nc(Br)n1S(=O)(=O)c1cccnc1Cl` belongs 144 to 146 °C. Next, `CCCCCN1C(=O)C(CCc2nnn[nH]2)(NC(=O)c2ccc(Cl)c(Cl)c2)c2ccccc21` (stereo unspecified): 142 °C; `CC(C)c1nn(-c2ccccc2)c(-c2ccc(F)cc2)c1CO`: 138 to 140 °C; `O=C1CCc2cc(-c3cccs3)ccc21`: 148 °C. `CCCc1nn(-c2ccc(C(F)(F)F)cn2)cc1C(=O)OCC`: the melting point lay in the range of 102 to 103 °C. In turn, `c1ccc(COc2cccc(OCc3ccccc3)c2OCc2ccccc2)cc1` displayed a melting point of 67 to 68 °C.

The molecule `NC(=O)Cc1ccc(Oc2ccccc2)cc1` yielded a melting point of 161 to 163 °C.

For the molecule `Cc1noc(NS(=O)(=O)c2ccccc2-c2ccc(-c3ncco3)cc2CN(C)C(=O)c2ccc(Cl)cc2)c1C`, the melting point lay in the range of 122 to 132 °C. Molecule `COc1nc(NC(=O)NS(=O)(=O)c2ccccc2Cl)nc2nccnc12` gave a melting point of 212 °C. To `O=C(NCCCSc1ccccn1)c1cccs1` belongs 81 to 82 °C; to `Nc1cccnc1Nc1cc(Cl)ccc1C(=O)c1ccccc1`, 153 to 155 °C; to `Cc1ccc2sc(S(=O)(=O)c3ccc(=O)[nH]n3)cc2c1`, 240 to 242 °C. For the molecule `CS(=O)(=O)c1ccc(-n2nc(CNC(=O)NC34CC5CC(CC(C5)C3)C4)cc2-c2ccccc2)cc1`, the melting point lay in the range of 150 to 155 °C. As for `CCCCNC(=O)NS(=O)(=O)c1ccc(CCNC(=O)N2CCCCC2=O)cc1`, the melting point fell in the range of 156 to 158 °C. `CC(C)Nc1c(-c2ccc(S(C)(=O)=O)cc2)cnn(CC(F)(F)F)c1=O` showed a melting point of 173 to 174 °C. `CC(=O)c1cccc2c1OC1(CC1)C2=O` returned a melting point of 114 to 115 °C. To `COC(=O)CCCCCSC1=CCCC1=O` belongs 45 to 46.5 °C; to `CCCc1nc2c(N)nc3ccccc3c2n1Cc1cc(-c2ccc(F)cc2)no1`, 226 to 227 °C.

Regarding `C=C(C)Cn1c(N)c(N)c(=O)n(C)c1=O`, the melting point lay within 152 to 153 °C.

For the molecule `CCCCCCCNC(=O)Nc1ccccc1CCc1cc(C(C)C)c(O)c(C(C)C)c1`, the melting point lay in the range of 150 to 151 °C. `CN(C)CCCCC(N)=O`: the melting point lay in the range of 86 to 87 °C. Next, `COCOC1CCC2(C)C(=CCC3C2CCC2(C)C(CO)CCC32)C1` (stereo unspecified): 102 to 105 °C; `N[C@@H]1CCC(=O)N[C@@H]1c1cccc(OC(F)(F)F)c1` (relative stereo): 126 to 130 °C. Take `CCC(COC)c1ccc(Cl)c2nc3n(c12)CCCN3c1ccc(Cl)cc1Cl` (stereo unspecified): the melting point was in the range of 130 to 131 °C.

As to `CC(=O)Nc1cccc(-c2ccc(C#N)c(=O)[nH]2)c1`, the melting point fell in the range of 326 to 328 °C. Turning to `CS(=O)(=O)Oc1ccccc1S(=O)(=O)Cl`, the melting point lay in the range of 94 to 95 °C. `N#Cc1cc(NC(=O)c2cccn2-c2ccc(F)cc2)ccc1N1CCN(CCO)CC1` displayed a melting point of 170 to 171 °C. The molecule `COC(=O)C1=C(C)N=C(OC)N(C(=O)Oc2ccc([N+](=O)[O-])cc2)C1c1ccc2nonc2c1` (stereo unspecified) had a melting point of 180 to 183 °C. As to `Cc1cnccc1C#N`, the melting point was 45 to 47 °C. With `COC(=O)Nc1cn2c(S(=O)c3ccccc3)cccc2n1` (stereo unspecified), the melting point lay within 249 to 251 °C. To `COc1ccc(Cn2cc(C(=O)O)c(=O)c3ccc(N4CCNCC4)cc32)cc1` belongs 230 to 235 °C; to `CC(C)(C)OC(=O)N[C@@H](Cc1ccc(OCc2ccccc2)cc1)C(=O)NCCN1CCCCC1`, 54 to 61 °C; to `CCCCCS(=O)(=O)NC(=O)CCc1ccc(OCCOC)cc1OC1CCCCC1`, 64.1 to 65.4 °C. `COc1ccc(-c2cc(C#N)c[nH]2)c(OC)c1` gave a melting point of 129 to 130 °C. To `COc1ccc2c(-c3ccc(OCCN4CCOCC4)cc3)c(Cc3ccc(Cl)cc3)oc2c1` belongs 126 to 128 °C. Molecule `NCCNC(=O)c1ccc(F)cc1` came in with a melting point of 57 to 60 °C.

As for `CCOC(=O)Cc1ccc(NC(=O)C(CCO)NS(=O)(=O)c2ccc(Cl)cc2)cc1` (racemic), the melting point was in the range of 164 to 167 °C. Regarding `O=c1c(F)cn(C2CCCO2)c(=O)n1C1CCCO1` (stereo unspecified), the melting point lay in the range of 105 to 108 °C. As for `CS(=O)c1ccc(CCCCl)cc1` (stereo unspecified), the melting point came to 46 °C. On to `CCCCCCCC/C=C\CCCCCCCC(=O)N[C@H]1CCCNC(=O)C1`, for which the melting point was 66 to 67 °C.

Take `CCC(NC(=O)Cc1ccccc1)C(=NNC(N)=S)c1ccccc1` (stereo unspecified): the melting point lay within 121 to 124 °C.

Turning to `COc1ccc(-c2csc3nc(C)c(CCN4CCC(c5noc6cc(F)ccc56)CC4)c(=O)n23)cc1`, the melting point is 114 to 119 °C. `C#CCOc1ccc(-c2nc3cnncc3[nH]2)c(OC)c1` yielded a melting point of 224 °C. Next, `CN(C(=O)CCNC#N)c1nnc(-c2cccnc2)s1`: 155 to 159 °C; `CCCc1nc2c(N)nc(C)c(C)c2n1CC1(O)CCCCC1`: 214 to 216 °C.

The molecule `CNC(=O)C(C)c1ccc2c(c1)CCc1ccccc1C2=O` (stereo unspecified) yielded a melting point of 140 °C. Next, `CC(C)(C)C(=O)OCCc1c(-c2ccccc2)nc(N)n2ncnc12`: 160 °C; `CN(O)CCCCc1ccc2c(c1)C(=O)c1sccc1CO2`: 107 to 108 °C; `CC(=O)NC1(c2ccc(CN3CCN(c4ccccc4)CC3)cc2)CC1`: 129 to 140 °C. To `O=C1c2ccccc2NC(=S)C2CCCN12` (stereo unspecified) belongs 268 to 270 °C; to `CCc1cnc(C2=NC(C)(C(C)C)C(=O)N2)c(C(=O)OC(C)CC)c1` (stereo unspecified), 83 to 87 °C. `CC(=O)Nc1ccc(N)c(C(O)c2ccccc2Cl)c1` (stereo unspecified) gave a melting point of 137 to 138 °C.

Turning to `C#Cc1ncn2c1[C@@H]1CCCN1C(=O)c1c(Cl)cccc1-2`, the melting point was in the range of 324 to 325 °C. On to `CCOCCn1cc(C2CCN(CCOc3ccc(C(=O)O)cc3)CC2)c2ccccc21`, for which the melting point was 85 °C. `Cc1cnc2c(c1)C(O)C(Cc1ccc(C#N)cc1)CC2` (stereo unspecified) registered a melting point of 174 to 175 °C. As to `O=C1C=C(NC(=O)C(=O)c2cn(Cc3cccc(Cl)c3F)c3ccccc23)CO1`, the melting point lay within 248 to 250 °C. Next, `COc1cn(-c2cc(-n3cccn3)ccc2F)nc(-c2ccnn2-c2ccccc2)c1=O`: 186 to 187 °C; `N#CC1=C(Nc2ccc(F)cc2)CCC1`: 100 to 102 °C.

The molecule `O=C1NC(CN2CCN(c3ccccc3)CC2)Cc2c[nH]c3cccc1c23` (stereo unspecified) came in with a melting point of 184 to 185 °C.

On to `OC1C[C@H]2CN(C3=Nc4cc(Cl)ccc4Oc4ccccc43)CCN2C1` (stereo partly specified), for which the melting point fell in the range of 90 to 92 °C. In turn, `Cc1oc(-c2ccccc2)nc1COc1ccc(C(C)CCCC#N)cc1` (stereo unspecified) registered a melting point of 76 to 77 °C. Next, `COc1cc(-c2ncnc(C(F)(F)F)c2C)c(F)cc1Cl`: 144 to 146 °C; `COc1cccc([C@]23CCN(C)C[C@@H]2CCC2(C3)OCCO2)c1` (relative stereo): 124 to 126 °C.

With `CCc1c(Br)c2ccccn2c1C(=O)c1cc(Br)c(O)c(Br)c1`, the melting point came to 195 °C. The molecule `CC(C)(C)OC(=O)N1CCN(c2cccc3ccc(-n4nnc5ncccc54)cc23)CC1` yielded a melting point of 173 to 175 °C. On to `O=C1CC(=O)C2CCC1C2`, for which the melting point lay within 129 to 130 °C. Next, `O=c1oc2cc(Cl)cnc2n1CCl`: 105 to 107 °C. In turn, `Cc1noc(NS(=O)(=O)c2ccccc2-c2ccc(-c3ncco3)cc2CN2CCN(c3ccccc3)C2=O)c1C` showed a melting point of 140 to 150 °C. Turning to `O=C(O)CCCCc1ccc(CCNS(=O)(=O)c2ccc(Cl)cc2)cc1`, the melting point lay in the range of 118 to 120 °C. The molecule `CCN1CCC(Cc2ccc(Cl)nc2)C1=C[N+](=O)[O-]` (stereo unspecified) came in with a melting point of 129 to 131 °C. To `CCCn1c(=O)c2c(NC)n[nH]c2n(Cc2ccc(Br)cc2)c1=O` belongs 308 to 310 °C; to `N#CCCNC(=O)c1n[nH]cc1NC(=O)c1cc2ccccc2o1`, 231 to 233 °C. Molecule `COc1cccc(Oc2ccc([N+](=O)[O-])cc2C#N)c1` displayed a melting point of 102 to 104 °C. Next, `O=C(O)C(=O)c1ccc(OCC(=O)N2CCc3ccccc3C2)cc1`: 218 to 220 °C; `CC(=O)OCCOC(=O)C1=C(C)NC(C)=C([N+](=O)[O-])C1c1ccccc1Cl` (stereo unspecified): 158 to 160 °C.

As for `CCCc1nc2c(N)nc3cc(C(F)(F)F)ccc3c2s1`, the melting point is 215 to 216 °C. Take `CCC1(C)CC(S(=O)Cc2c(F)cccc2F)=NO1` (stereo unspecified): the melting point is less than 30 °C. `C=CCOc1cn(C)c2cc(OCC(F)(F)F)ccc2c1=O`: the melting point was 120 °C. For `O=C1NC(=S)SC1=Cc1cc(Cl)c2c(c1)N(CCc1ccc(C(F)(F)F)cc1)C(=O)CO2`, the melting point lay in the range of 275 to 277 °C. Take `O=S(=O)(On1nnc2ccc(Cl)cc21)c1ccccc1`: the melting point was 110 °C. Take `Cn1c(=O)c2cn(S(=O)(=O)CCCCl)nc2n(C)c1=O`: the melting point lay within 160 to 162 °C. With `CCc1ccc(C(=O)O)c(N)c1`, the melting point lay within 117 to 120 °C. Molecule `Nc1cc(-n2c(=O)n(-c3ccccc3)c3ccccc32)ccn1` gave a melting point of 184 to 185 °C.

Molecule `O=C(O)[C@@H]1CCCN1C(=O)C1CCCC1S` (stereo partly specified) displayed a melting point of 97 °C. `O=C(Nc1nnc(-c2ccc(Cl)cc2)s1)c1c(Cl)cccc1Cl`: the melting point is greater than 260 °C. Next, `CCCOc1ccc(Br)cc1CN(CC)c1ccc(C(=O)O)nn1`: 135 to 137 °C.
